# Reference: ChEMBL document CHEMBL1201861, “Genomics of Drug Sensitity in Cancer screening data, Wellcome Trust Sanger Institute”
# Several values for one entry are separate records, joined by “and”; a condition that tells them apart may be missing. Equal entries are not always repeated. Where a SMILES comes first, the peptide text is derived from it. The star is where a group is joined. Cbz = O=C(OCc1ccccc1)*
# What was measured:
# EB2 = experiment: cells; assay type: functional, cell-based, Homo sapiens;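 also: growth inhibition of EB2 cells, read out with a cell viability assay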
# Description: SANGER: Inhibition of human EB2 cell growth in a cell viability assay.
# EB-3 = experiment: cells; assay type: functional, cell-based, Homo sapiens;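 also: human EB-3 cells, growth inhibition read out via a cell viability assay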
# Description: SANGER: Inhibition of human EB-3 cell growth in a cell viability assay.
# NCCIT = experiment: SANGER: Inhibition of human NCCIT cell growth in a cell viability assay.; assay type: functional, cell-based
# NCI-H1522 = experiment: cells; assay type: functional, cell-based, Homo sapiens;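 also: growth inhibition of NCI-H1522 cells, read out with a cell viability assay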
# Description: SANGER: Inhibition of human NCI-H1522 cell growth in a cell viability assay.
# BL-41 = experiment: cells; assay type: functional, cell-based; details: Homo sapiens;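 also: growth inhibition of human BL-41 cells, read out with a cell viability assay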
# Description: SANGER: Inhibition of human BL-41 cell growth in a cell viability assay.
# NCI-H64 = experiment: cells; assay type: functional, cell-based, Homo sapiens;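 also: growth inhibition of NCI-H64 cells, read out with a cell viability assay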
# Description: SANGER: Inhibition of human NCI-H64 cell growth in a cell viability assay.
# SNU-16 = experiment: cells; assay type: functional, cell-based, Homo sapiens;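 also: growth inhibition of human SNU-16 cells, determined with a cell viability readout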
# Description: SANGER: Inhibition of human NCI-SNU-16 cell growth in a cell viability assay.
# L-540 = experiment: cells; assay type: functional, cell-based, Homo sapiens;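 also: growth inhibition of the human L-540 cell line, read out with a viability assay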
# Description: SANGER: Inhibition of human L-540 cell growth in a cell viability assay.
# TE-441-T = experiment: cells; assay type: functional, cell-based, Homo sapiens
# Description: SANGER: Inhibition of human TE-441-T cell growth in a cell viability assay.
# LP-1 = experiment: cells; assay type: functional, cell-based, Homo sapiens;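 also: growth inhibition of human LP-1 cells, with the read-out taken from a cell viability assay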
# Description: SANGER: Inhibition of human LP-1 cell growth in a cell viability assay.
# EW-24 = experiment: cells; assay type: functional, cell-based, Homo sapiens;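 also: human EW-24 cancer cell line, growth inhibition read out via a cell viability assay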
# Description: SANGER: Inhibition of human EW-24 cell growth in a cell viability assay.
# NCI-H322M = experiment: cells; assay type: functional, cell-based, Homo sapiens;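 also: cell viability assay measuring inhibition of growth of human NCI-H322M cells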
# Description: SANGER: Inhibition of human NCI-H322M cell growth in a cell viability assay.
# NCI-H2081 = experiment: cells; assay type: functional, cell-based, Homo sapiens;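 also: growth inhibition of human NCI-H2081 cells, read out with a cell viability assay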
# Description: SANGER: Inhibition of human NCI-H2081 cell growth in a cell viability assay.
# HCC1599 = experiment: cells; assay type: functional, cell-based, Homo sapiens;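 also: growth inhibition of HCC1599 cells, read out in a cell viability assay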
# Description: SANGER: Inhibition of human HCC1599 cell growth in a cell viability assay.
# EC-GI-10 = experiment: cells; assay type: functional, cell-based, Homo sapiens
# Description: SANGER: Inhibition of human EC-GI-10 cell growth in a cell viability assay.
# KARPAS-422 = experiment: cells; assay type: functional, cell-based, Homo sapiens
# Description: SANGER: Inhibition of human KARPAS-422 cell growth in a cell viability assay.
# MRK-nu-1 = experiment: cells; assay type: functional, cell-based, Homo sapiens;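 also: cell viability assay measuring growth suppression of human MRK-nu-1 cells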
# Description: SANGER: Inhibition of human MRK-nu-1 cell growth in a cell viability assay.
# NB17 = experiment: cells; assay type: functional, cell-based, Homo sapiens;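 also: growth inhibition of NB17 cells, read out with a cell viability assay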
# Description: SANGER: Inhibition of human NB17 cell growth in a cell viability assay.
# IST-SL2 = experiment: cells; assay type: functional, cell-based, Homo sapiens;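 also: growth inhibition of human IST-SL2 cells, read out by a cell viability assay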
# Description: SANGER: Inhibition of human IST-SL2 cell growth in a cell viability assay.
# A-375 = experiment: cells; assay type: functional, cell-based; details: Homo sapiens;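 also: growth inhibition of A375 cells, read out with a cell viability assay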
# Description: SANGER: Inhibition of human A375 cell growth in a cell viability assay.
# SW948 = experiment: cells; assay type: functional, cell-based; details: Homo sapiens;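 also: growth inhibition of SW948 cells, read out with a cell viability assay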
# Description: SANGER: Inhibition of human SW948 cell growth in a cell viability assay.
# AU565 = experiment: cells; assay type: functional, cell-based; details: Homo sapiens;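 also: cell viability assay measuring growth inhibition of human AU565 cells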
# Description: SANGER: Inhibition of human AU565 cell growth in a cell viability assay.
# 8305C = experiment: cells; assay type: functional, cell-based; details: Homo sapiens
# Description: SANGER: Inhibition of human 8305C cell growth in a cell viability assay.
# BT-20 = experiment: cells; assay type: functional, cell-based; details: Homo sapiens;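 also: cell viability assay measuring suppression of growth in human BT-20 cells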
# Description: SANGER: Inhibition of human BT-20 cell growth in a cell viability assay.
# NCI-H727 = experiment: cells; assay type: functional, cell-based; details: Homo sapiens;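 also: growth inhibition of human NCI-H727 cells, read out with a cell viability assay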
# Description: SANGER: Inhibition of human NCI-H727 cell growth in a cell viability assay.
# A-431 = experiment: cells; assay type: functional, cell-based; details: Homo sapiens;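 also: growth inhibition of A-431 cells, determined with a cell viability read-out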
# Description: SANGER: Inhibition of human A431 cell growth in a cell viability assay.
# RERF-LC-MS = experiment: cells; assay type: functional, cell-based; details: Homo sapiens;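 also: growth inhibition of human RERF-LC-MS cells, read out by a cell viability assay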
# Description: SANGER: Inhibition of human RERF-LC-MS cell growth in a cell viability assay.
# SCC-4 = experiment: cells; assay type: functional, cell-based; details: Homo sapiens;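 also: growth inhibition of human SCC-4 cells, read out as cell viability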
# Description: SANGER: Inhibition of human SCC-4 cell growth in a cell viability assay.
# RVH-421 = experiment: cells; assay type: functional, cell-based; details: Homo sapiens
# Description: SANGER: Inhibition of human RVH-421 cell growth in a cell viability assay.
# SW13 = experiment: cells; assay type: functional, cell-based; details: Homo sapiens;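 also: IC50 is inhibition of SW13 cell growth, read out with a cell viability assay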
# Description: SANGER: Inhibition of human SW13 cell growth in a cell viability assay.
# KYSE-140 = experiment: cells; assay type: functional, cell-based; details: Homo sapiens;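 also: cell viability assay measuring growth inhibition in human KYSE-140 cells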
# Description: SANGER: Inhibition of human KYSE-140 cell growth in a cell viability assay.
# HOS = experiment: cells; assay type: functional, cell-based; details: Homo sapiens;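 also: growth inhibition of human HOS cells, read out with a cell viability assay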
# Description: SANGER: Inhibition of human HOS cell growth in a cell viability assay.
# CAL-27 = experiment: cells; assay type: functional, cell-based; details: Homo sapiens;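 also: Viability-based readout, IC50 reflecting inhibition of CAL-27 cell growth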
# Description: SANGER: Inhibition of human CAL-27 cell growth in a cell viability assay.
# CAL-39 = experiment: cells; assay type: functional, cell-based; details: Homo sapiens;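 also: cell viability assay measuring growth inhibition of CAL-39 cells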
# Description: SANGER: Inhibition of human CAL-39 cell growth in a cell viability assay.
# SNU-423 = experiment: cells; assay type: functional, cell-based; details: Homo sapiens
# Description: SANGER: Inhibition of human SNU-423 cell growth in a cell viability assay.
# GP5d = experiment: cells; assay type: functional, cell-based; details: Homo sapiens;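 also: growth inhibition of human GP5d cells, read out with a cell viability assay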
# Description: SANGER: Inhibition of human GP5d cell growth in a cell viability assay.
# CaR-1 = experiment: cells; assay type: functional, cell-based; details: Homo sapiens;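 also: growth inhibition of human CaR-1 cancer cells, read out with a cell viability assay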
# Description: SANGER: Inhibition of human CaR-1 cell growth in a cell viability assay.
# NCI-H2087 = experiment: cells; assay type: functional, cell-based; details: Homo sapiens;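 also: growth inhibition determined with a cell viability readout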
# Description: SANGER: Inhibition of human NCI-H2087 cell growth in a cell viability assay.
# KYSE-70 cell line = experiment: cells; assay type: functional, cell-based; details: Homo sapiens;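 also: cell viability assay read-out, with IC50 expressing suppression of KYSE-70 cell growth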
# Description: SANGER: Inhibition of human KYSE-70 cell growth in a cell viability assay.
# LU-99A = experiment: cells; assay type: functional, cell-based; details: Homo sapiens;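 also: growth inhibition of LU-99A cells, read out with a cell viability assay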
# Description: SANGER: Inhibition of human LU-99A cell growth in a cell viability assay.
# HEC-1 = experiment: cells; assay type: functional, cell-based; details: Homo sapiens;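 also: growth inhibition of the cell line, read out with a cell viability assay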
# Description: SANGER: Inhibition of human HEC-1 cell growth in a cell viability assay.
# SK-MEL-30 = experiment: cells; assay type: functional, cell-based; details: Homo sapiens;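 also: growth inhibition of SK-MEL-30 cells, determined with a cell viability assay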
# Description: SANGER: Inhibition of human SK-MEL-30 cell growth in a cell viability assay.
# SNU-449 = experiment: cells; assay type: functional, cell-based; details: Homo sapiens
# Description: SANGER: Inhibition of human SNU-449 cell growth in a cell viability assay.
# KYSE-520 cell line = experiment: cells; assay type: functional, cell-based; details: Homo sapiens;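 also: growth inhibition of human KYSE-520 cells, read out with a viability assay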
# Description: SANGER: Inhibition of human KYSE-520 cell growth in a cell viability assay.
# C-33-A = experiment: cells; assay type: functional, cell-based; details: Homo sapiens;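 also: cell viability assay measuring growth inhibition of C-33-A cells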
# Description: SANGER: Inhibition of human C-33-A cell growth in a cell viability assay.
# PC-14 = experiment: cells; assay type: functional, cell-based; details: Homo sapiens;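 also: cell viability assay measuring inhibition of PC-14 cell growth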
# Description: SANGER: Inhibition of human PC-14 cell growth in a cell viability assay.
# HCC38 = experiment: cells; assay type: functional, cell-based; details: Homo sapiens;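 also: cell viability assay on the human HCC38 cell line, with IC50 marking the concentration that inhibits cell growth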
# Description: SANGER: Inhibition of human HCC38 cell growth in a cell viability assay.
# KYSE-450 = experiment: cells; assay type: functional, cell-based; details: Homo sapiens;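 also: cell growth inhibition measured by a viability assay in human KYSE-450 cells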
# Description: SANGER: Inhibition of human KYSE-450 cell growth in a cell viability assay.
# HT1197 = experiment: cells; assay type: functional, cell-based, HT-1197; details: Homo sapiens
# Description: SANGER: Inhibition of human HT-1197 cell growth in a cell viability assay.
# COR-L23 = experiment: cells; assay type: functional, cell-based; details: Homo sapiens;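 also: cell viability assay measuring how strongly compounds suppress growth of COR-L23 cells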
# Description: SANGER: Inhibition of human COR-L23 cell growth in a cell viability assay.
# SK-MEL-28 = experiment: cells; assay type: functional, cell-based; details: Homo sapiens;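 also: growth inhibition of human SK-MEL-28 cells, read out with a cell viability assay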
# Description: SANGER: Inhibition of human SK-MEL-28 cell growth in a cell viability assay.
# HuO9 = experiment: cells; assay type: functional, cell-based; details: Homo sapiens;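 also: growth inhibition of HuO9 cells, read out with a cell viability assay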
# Description: SANGER: Inhibition of human HuO9 cell growth in a cell viability assay.
# SCC-9 = experiment: cells; assay type: functional, cell-based; details: Homo sapiens;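 also: Read-out is a cell viability assay, with values giving inhibition of cell growth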
# Description: SANGER: Inhibition of human SCC-9 cell growth in a cell viability assay.
# CHL-1 = experiment: cells; assay type: functional, cell-based; details: Homo sapiens;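 also: cell growth inhibition, read out with a cell viability assay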
# Description: SANGER: Inhibition of human CHL-1 cell growth in a cell viability assay.
# PFSK-1 = experiment: cells; assay type: functional, cell-based; details: Homo sapiens;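 also: cell viability assay measuring how strongly compounds suppress growth of human PFSK-1 cells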
# Description: SANGER: Inhibition of human PFSK-1 cell growth in a cell viability assay.
# DK-MG = experiment: cells; assay type: functional, cell-based; details: Homo sapiens;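 also: growth inhibition of DK-MG cells, read out with a cell viability assay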
# Description: SANGER: Inhibition of human DK-MG cell growth in a cell viability assay.
# P12-Ichikawa = experiment: cells; assay type: functional, cell-based; details: Homo sapiens
compound,measurement,setting,value
NC(=O)c1cccc(-c2cc(Nc3ccc(OC(F)(F)F)cc3)ncn2)c1,IC50,"EB2; Homo sapiens, EB2",> 1280 nM
same,IC50,"EB-3; Homo sapiens, EB-3",> 1280 nM
same,IC50,"NCCIT; Homo sapiens, NCCIT",> 1280 nM
same,IC50,"NCI-H1522; Homo sapiens, NCI-H1522",> 1280 nM
same,IC50,BL-41,> 1280 nM
same,IC50,"NCI-H64; Homo sapiens, NCI-H64",> 1280 nM
same,IC50,"SNU-16; Homo sapiens, SNU-16",> 1280 nM
same,IC50,"L-540; Homo sapiens, L-540",> 1280 nM
same,IC50,"TE-441-T; Homo sapiens, TE-441-T",> 1280 nM
same,IC50,"LP-1; Homo sapiens, LP-1",> 1280 nM
same,IC50,"EW-24; Homo sapiens, EW-24",> 1280 nM
same,IC50,"NCI-H322M; Homo sapiens, NCI-H322M",> 1280 nM
same,IC50,"NCI-H2081; Homo sapiens, NCI-H2081",> 1280 nM
same,IC50,"HCC1599; Homo sapiens, HCC1599",> 1280 nM
same,IC50,"EC-GI-10; Homo sapiens, EC-GI-10",> 1280 nM
same,IC50,"KARPAS-422; Homo sapiens, KARPAS-422",> 1280 nM
same,IC50,"MRK-nu-1; Homo sapiens, MRK-nu-1",> 1280 nM
same,IC50,"NB17; Homo sapiens, NB17",> 1280 nM
same,IC50,"IST-SL2; Homo sapiens, IST-SL2",> 1280 nM
COc1cc(N2CCC(N3CCN(C)CC3)CC2)ccc1Nc1ncc(Cl)c(Nc2ccccc2S(=O)(=O)C(C)C)n1 [TAE-684],IC50,"EB2; Homo sapiens, EB2",> 2000 nM
same,IC50,"EB-3; Homo sapiens, EB-3",> 2000 nM
same,IC50,"NCCIT; Homo sapiens, NCCIT",> 2000 nM
same,IC50,"NCI-H1522; Homo sapiens, NCI-H1522",> 2000 nM
same,IC50,BL-41,1760 nM
same,IC50,"NCI-H64; Homo sapiens, NCI-H64",> 2000 nM
same,IC50,"SNU-16; Homo sapiens, SNU-16",727 nM
same,IC50,"L-540; Homo sapiens, L-540",370 nM
same,IC50,"TE-441-T; Homo sapiens, TE-441-T",> 2000 nM
same,IC50,"LP-1; Homo sapiens, LP-1",1870 nM
same,IC50,"EW-24; Homo sapiens, EW-24",> 2000 nM
same,IC50,"NCI-H322M; Homo sapiens, NCI-H322M",> 2000 nM
same,IC50,"NCI-H2081; Homo sapiens, NCI-H2081",> 2000 nM
same,IC50,"HCC1599; Homo sapiens, HCC1599",> 2000 nM
same,IC50,"EC-GI-10; Homo sapiens, EC-GI-10",> 2000 nM
same,IC50,"KARPAS-422; Homo sapiens, KARPAS-422",1100 nM
same,IC50,"MRK-nu-1; Homo sapiens, MRK-nu-1",> 2000 nM
same,IC50,"NB17; Homo sapiens, NB17",1010 nM
same,IC50,"IST-SL2; Homo sapiens, IST-SL2",> 2000 nM
COc1ccc(N(C(=O)Oc2c(C)cccc2C)c2ccnc(Nc3ccc(N4CCN(C)CC4)cc3)n2)c(OC)c1,IC50,"EB2; Homo sapiens, EB2",> 5120 nM
same,IC50,"EB-3; Homo sapiens, EB-3",2160 nM
same,IC50,"NCCIT; Homo sapiens, NCCIT",> 5120 nM
same,IC50,"NCI-H1522; Homo sapiens, NCI-H1522",> 5120 nM
same,IC50,BL-41,1000 nM
same,IC50,"NCI-H64; Homo sapiens, NCI-H64",> 5120 nM
same,IC50,"SNU-16; Homo sapiens, SNU-16",15.7 nM
same,IC50,"L-540; Homo sapiens, L-540",> 5120 nM
same,IC50,"TE-441-T; Homo sapiens, TE-441-T",> 5120 nM
same,IC50,"LP-1; Homo sapiens, LP-1",> 5120 nM
same,IC50,"EW-24; Homo sapiens, EW-24",> 5120 nM
same,IC50,"NCI-H322M; Homo sapiens, NCI-H322M",> 5120 nM
same,IC50,"NCI-H2081; Homo sapiens, NCI-H2081",> 5120 nM
same,IC50,"HCC1599; Homo sapiens, HCC1599",> 5120 nM
same,IC50,"EC-GI-10; Homo sapiens, EC-GI-10",> 5120 nM
same,IC50,"KARPAS-422; Homo sapiens, KARPAS-422",> 5120 nM
same,IC50,"MRK-nu-1; Homo sapiens, MRK-nu-1",4720 nM
same,IC50,"NB17; Homo sapiens, NB17",2630 nM
same,IC50,"IST-SL2; Homo sapiens, IST-SL2",1470 nM
CS(=O)(=O)N1CCN(Cc2cc3nc(-c4cccc5[nH]ncc45)nc(N4CCOCC4)c3s2)CC1 [PICTILISIB],IC50,A-375,> 4000 nM
same,IC50,SW948,> 4000 nM
same,IC50,AU565,1320 nM
same,IC50,8305C,> 4000 nM
same,IC50,BT-20,1690 nM
same,IC50,NCI-H727,> 4000 nM
same,IC50,A-431,2270 nM
same,IC50,RERF-LC-MS,> 4000 nM
same,IC50,SCC-4,> 4000 nM
same,IC50,RVH-421,> 4000 nM
same,IC50,SW13,> 4000 nM
same,IC50,KYSE-140,> 4000 nM
same,IC50,HOS,1980 nM
same,IC50,CAL-27,> 4000 nM
same,IC50,CAL-39,2030 nM
same,IC50,SNU-423,2400 nM
same,IC50,GP5d,> 4000 nM
same,IC50,CaR-1,> 4000 nM
same,IC50,NCI-H2087,> 4000 nM
same,IC50,KYSE-70 cell line,> 4000 nM
same,IC50,LU-99A,> 4000 nM
same,IC50,HEC-1,> 4000 nM
same,IC50,SK-MEL-30,> 4000 nM
same,IC50,SNU-449,2570 nM
same,IC50,KYSE-520 cell line,> 4000 nM
same,IC50,C-33-A,> 4000 nM
same,IC50,PC-14,3730 nM
same,IC50,HCC38,> 4000 nM
same,IC50,KYSE-450,> 4000 nM
same,IC50,HT1197,> 4000 nM
same,IC50,COR-L23,3370 nM
same,IC50,SK-MEL-28,1560 nM
same,IC50,HuO9,206 nM
same,IC50,SCC-9,> 4000 nM
same,IC50,CHL-1,379 nM
same,IC50,"NB17; Homo sapiens, NB17",> 4000 nM
same,IC50,PFSK-1,1940 nM
same,IC50,DK-MG,> 4000 nM
same,IC50,P12-Ichikawa,> 4000 nM
CC(C)C[C@@H](C=O)NC(=O)[C@H](CC(C)C)NC(=O)[C@H](CC(C)C)NC(=O)OCc1ccccc1 [MG-132] (Cbz-Leu-Leu-Leu-aldehyde),IC50,EB2; eb2,> 1000 nM
same,IC50,EB-3; eb-3,> 1000 nM
same,IC50,NCCIT; nccit,318 nM and > 1000 nM
same,IC50,NCI-H1522; nci-h1522,> 1000 nM
same,IC50,NCI-H64; nci-h64,> 1000 nM
same,IC50,"SNU-16; Homo sapiens, SNU-16",> 1000 nM
same,IC50,SNU-16; snu-16,> 1000 nM
same,IC50,L-540; l-540,> 1000 nM
same,IC50,TE-441-T; te-441-t,> 1000 nM
same,IC50,LP-1; lp-1,> 1000 nM
same,IC50,"EW-24; Homo sapiens, EW-24",> 1000 nM
same,IC50,EW-24; ew-24,> 1000 nM
same,IC50,NCI-H322M; nci-h322m,> 1000 nM
same,IC50,NCI-H2081; nci-h2081,> 1000 nM
same,IC50,HCC1599; hcc1599,> 1000 nM
same,IC50,"EC-GI-10; Homo sapiens, EC-GI-10",> 1000 nM
same,IC50,EC-GI-10; ec-gi-10,> 1000 nM
same,IC50,KARPAS-422; karpas-422,> 1000 nM
same,IC50,MRK-nu-1; mrk-nu-1,> 1000 nM
same,IC50,NB17; nb17,430 nM and > 1000 nM
same,IC50,IST-SL2; ist-sl2,> 1000 nM
